Experimental data from ChEMBL document CHEMBL1131962, “A new class of selective and potent inhibitors of neuronal nitric oxide synthase” (Bioorg Med Chem Lett, 1999).

What was measured:
[1] = Maximum concentration in CSF at 30 min following 24 mg/kg subcutaneous dose in rats; format: ADME, organism-based, Cerebrospinal fluid; set-up: dose 24 mg/kg, route subcutaneous; conditions: rat, sc
[2] = Half life in rats; format: ADME, organism-based; conditions: rat, in vivo
[3] = biological target: T1, Muscarinic acetylcholine receptor M4 (Homo sapiens, UniProt P08173); experiment: Binding ability of compound to m4 muscarinic receptor
T1 sequence (P08173 whole entry): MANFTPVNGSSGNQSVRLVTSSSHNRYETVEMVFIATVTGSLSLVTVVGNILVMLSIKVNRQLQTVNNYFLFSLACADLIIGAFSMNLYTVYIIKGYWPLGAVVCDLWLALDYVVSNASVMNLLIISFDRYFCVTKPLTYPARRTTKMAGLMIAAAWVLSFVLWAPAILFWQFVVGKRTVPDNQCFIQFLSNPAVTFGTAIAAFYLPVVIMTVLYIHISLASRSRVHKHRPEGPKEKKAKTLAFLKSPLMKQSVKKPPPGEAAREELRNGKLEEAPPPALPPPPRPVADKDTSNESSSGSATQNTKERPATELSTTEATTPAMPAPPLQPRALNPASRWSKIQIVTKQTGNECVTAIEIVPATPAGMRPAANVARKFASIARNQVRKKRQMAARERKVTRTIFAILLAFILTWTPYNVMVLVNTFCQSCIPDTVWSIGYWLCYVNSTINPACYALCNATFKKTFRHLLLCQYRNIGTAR

[4] = biological target: T2, Muscarinic acetylcholine receptor M2 (Homo sapiens, UniProt P08172); experiment: Binding affinity of compound to m2 muscarinic receptor
T2 sequence (P08172 whole entry): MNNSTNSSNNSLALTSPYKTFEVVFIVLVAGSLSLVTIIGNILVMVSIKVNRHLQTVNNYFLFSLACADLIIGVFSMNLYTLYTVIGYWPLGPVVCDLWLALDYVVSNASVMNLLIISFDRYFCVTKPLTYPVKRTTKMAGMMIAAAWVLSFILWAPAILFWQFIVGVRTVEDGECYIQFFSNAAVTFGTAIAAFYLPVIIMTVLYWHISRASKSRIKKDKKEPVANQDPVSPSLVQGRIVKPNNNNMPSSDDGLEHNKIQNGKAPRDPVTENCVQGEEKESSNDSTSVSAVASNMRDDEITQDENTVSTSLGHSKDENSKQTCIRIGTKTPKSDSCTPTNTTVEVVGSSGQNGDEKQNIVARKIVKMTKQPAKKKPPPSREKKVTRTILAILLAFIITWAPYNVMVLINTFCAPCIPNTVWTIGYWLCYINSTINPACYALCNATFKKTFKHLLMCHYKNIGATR

Nitric oxide synthase 1 [5] = biological target: Nitric oxide synthase 1 (Homo sapiens, UniProt P29475); experiment: Inhibitory activity against human neuronal nitric oxide synthase (nNOS)
D(2) dopamine receptor [6] = biological target: T3, D(2) dopamine receptor (Homo sapiens, UniProt P14416); experiment: Binding affinity of compound to Dopamine receptor D2
Nitric oxide synthase 3 = biological target: T4, Nitric oxide synthase 3 (Homo sapiens, UniProt P29474); experiment: Inhibitory activity against human endothelial nitric oxide synthase (eNOS)
T4 sequence (P29474 whole entry): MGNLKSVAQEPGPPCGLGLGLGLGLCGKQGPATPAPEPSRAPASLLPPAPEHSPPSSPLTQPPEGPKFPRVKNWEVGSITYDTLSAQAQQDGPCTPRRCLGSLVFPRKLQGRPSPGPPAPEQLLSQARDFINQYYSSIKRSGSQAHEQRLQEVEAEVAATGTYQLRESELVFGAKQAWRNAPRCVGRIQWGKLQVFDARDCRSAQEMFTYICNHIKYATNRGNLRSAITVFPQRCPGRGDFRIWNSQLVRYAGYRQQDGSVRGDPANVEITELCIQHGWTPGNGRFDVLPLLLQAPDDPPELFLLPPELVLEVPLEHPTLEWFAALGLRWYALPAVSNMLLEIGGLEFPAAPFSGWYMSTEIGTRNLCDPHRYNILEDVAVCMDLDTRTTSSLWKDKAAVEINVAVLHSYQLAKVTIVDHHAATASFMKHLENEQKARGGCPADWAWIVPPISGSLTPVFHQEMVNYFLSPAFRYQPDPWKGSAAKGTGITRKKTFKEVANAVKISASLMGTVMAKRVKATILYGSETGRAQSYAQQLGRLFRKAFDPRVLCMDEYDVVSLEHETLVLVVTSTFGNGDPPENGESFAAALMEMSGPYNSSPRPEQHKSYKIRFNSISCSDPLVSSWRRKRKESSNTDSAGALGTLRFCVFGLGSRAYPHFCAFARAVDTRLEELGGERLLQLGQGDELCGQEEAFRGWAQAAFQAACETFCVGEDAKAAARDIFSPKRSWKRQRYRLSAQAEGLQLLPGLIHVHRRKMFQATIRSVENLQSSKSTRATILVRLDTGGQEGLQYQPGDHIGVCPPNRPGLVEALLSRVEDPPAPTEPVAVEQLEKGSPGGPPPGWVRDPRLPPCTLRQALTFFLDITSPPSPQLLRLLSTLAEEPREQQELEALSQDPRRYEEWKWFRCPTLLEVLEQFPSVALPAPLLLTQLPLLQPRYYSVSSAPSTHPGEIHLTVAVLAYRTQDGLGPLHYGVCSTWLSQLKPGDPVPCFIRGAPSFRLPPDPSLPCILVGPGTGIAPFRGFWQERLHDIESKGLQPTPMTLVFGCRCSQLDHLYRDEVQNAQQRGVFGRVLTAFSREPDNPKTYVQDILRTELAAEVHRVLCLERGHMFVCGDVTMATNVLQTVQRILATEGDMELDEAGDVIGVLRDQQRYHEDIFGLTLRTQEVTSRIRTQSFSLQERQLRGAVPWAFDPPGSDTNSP

[7] = Maximum concentration in whole brain at 30 min following 24 mg/kg subcutaneous dose in rats; format: ADME, organism-based; set-up: dose 24 mg/kg, route subcutaneous; conditions: rat, sc
Nitric oxide synthase 1 [8] = biological target: Nitric oxide synthase 1 (Rattus norvegicus, UniProt P29476); experiment: Inhibitory activity against rat neuronal nitric oxide synthase (nNOS)
[9] = Maximum concentration in plasma at 30 min following 24 mg/kg subcutaneous dose in rats; format: ADME, organism-based; set-up: dose 24 mg/kg, route subcutaneous; conditions: rat, sc
[10] = biological target: 5-hydroxytryptamine receptor 2A (Homo sapiens, UniProt P28223); experiment: Binding affinity of compound to human 5-hydroxytryptamine 2A receptor
D(2) dopamine receptor [11] = biological target: T3, D(2) dopamine receptor; experiment: Binding ability of compound to human Dopamine receptor D2
[12] = biological target: T5, 5-hydroxytryptamine receptor 1A (Homo sapiens, UniProt P08908); experiment: Binding affinity of compound to human 5-hydroxytryptamine 1A receptor
T5 sequence (P08908 whole entry): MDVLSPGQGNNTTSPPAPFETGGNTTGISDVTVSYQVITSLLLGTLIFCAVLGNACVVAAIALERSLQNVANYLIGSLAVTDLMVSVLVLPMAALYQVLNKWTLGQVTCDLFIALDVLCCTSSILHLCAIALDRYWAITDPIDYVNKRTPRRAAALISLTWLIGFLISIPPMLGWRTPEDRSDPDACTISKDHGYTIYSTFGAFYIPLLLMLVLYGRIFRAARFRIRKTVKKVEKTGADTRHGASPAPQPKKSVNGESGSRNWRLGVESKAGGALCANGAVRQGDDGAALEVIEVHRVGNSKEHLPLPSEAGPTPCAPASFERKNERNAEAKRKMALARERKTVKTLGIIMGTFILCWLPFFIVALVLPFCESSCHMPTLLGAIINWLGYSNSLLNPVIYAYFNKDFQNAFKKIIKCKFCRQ

Nitric oxide synthase 1 (Rattus norvegicus, UniProt P29476), sequence (P29476 whole entry): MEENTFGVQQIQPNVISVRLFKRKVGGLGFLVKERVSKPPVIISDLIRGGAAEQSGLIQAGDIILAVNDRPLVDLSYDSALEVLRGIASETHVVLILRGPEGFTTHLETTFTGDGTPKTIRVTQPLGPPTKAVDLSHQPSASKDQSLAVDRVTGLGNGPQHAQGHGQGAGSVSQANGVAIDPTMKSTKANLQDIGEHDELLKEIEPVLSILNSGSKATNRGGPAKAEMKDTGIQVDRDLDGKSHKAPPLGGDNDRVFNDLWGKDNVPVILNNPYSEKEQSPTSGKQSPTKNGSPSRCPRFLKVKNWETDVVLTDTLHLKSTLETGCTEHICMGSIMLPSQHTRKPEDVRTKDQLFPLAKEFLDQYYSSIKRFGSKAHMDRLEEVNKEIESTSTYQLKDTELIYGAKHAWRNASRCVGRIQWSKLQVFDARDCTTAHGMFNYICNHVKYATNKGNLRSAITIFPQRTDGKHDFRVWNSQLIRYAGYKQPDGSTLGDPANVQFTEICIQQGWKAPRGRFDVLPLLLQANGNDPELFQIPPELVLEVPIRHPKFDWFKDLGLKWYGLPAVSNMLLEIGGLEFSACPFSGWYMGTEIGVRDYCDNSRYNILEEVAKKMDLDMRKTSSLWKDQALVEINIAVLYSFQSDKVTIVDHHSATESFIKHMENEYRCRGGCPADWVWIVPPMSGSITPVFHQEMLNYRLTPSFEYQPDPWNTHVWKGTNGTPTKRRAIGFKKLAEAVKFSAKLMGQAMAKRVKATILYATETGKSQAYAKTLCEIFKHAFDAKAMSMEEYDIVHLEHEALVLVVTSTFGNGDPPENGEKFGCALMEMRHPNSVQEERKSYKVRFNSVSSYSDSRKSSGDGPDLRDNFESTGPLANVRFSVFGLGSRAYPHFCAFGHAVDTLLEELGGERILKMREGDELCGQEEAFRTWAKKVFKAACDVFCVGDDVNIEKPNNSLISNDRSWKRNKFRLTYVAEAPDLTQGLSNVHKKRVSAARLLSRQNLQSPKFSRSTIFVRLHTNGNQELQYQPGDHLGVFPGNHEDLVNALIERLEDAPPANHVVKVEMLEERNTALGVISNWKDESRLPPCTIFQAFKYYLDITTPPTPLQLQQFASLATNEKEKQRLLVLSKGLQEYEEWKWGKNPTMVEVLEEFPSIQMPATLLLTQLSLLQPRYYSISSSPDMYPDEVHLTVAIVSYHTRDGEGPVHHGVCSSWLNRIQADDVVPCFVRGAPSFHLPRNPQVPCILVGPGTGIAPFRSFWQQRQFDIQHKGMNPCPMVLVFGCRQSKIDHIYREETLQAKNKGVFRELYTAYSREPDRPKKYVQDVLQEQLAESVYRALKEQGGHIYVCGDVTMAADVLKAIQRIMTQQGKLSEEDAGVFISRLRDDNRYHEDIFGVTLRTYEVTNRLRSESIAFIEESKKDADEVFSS
Nitric oxide synthase 1 (Homo sapiens, UniProt P29475), sequence (P29475 whole entry): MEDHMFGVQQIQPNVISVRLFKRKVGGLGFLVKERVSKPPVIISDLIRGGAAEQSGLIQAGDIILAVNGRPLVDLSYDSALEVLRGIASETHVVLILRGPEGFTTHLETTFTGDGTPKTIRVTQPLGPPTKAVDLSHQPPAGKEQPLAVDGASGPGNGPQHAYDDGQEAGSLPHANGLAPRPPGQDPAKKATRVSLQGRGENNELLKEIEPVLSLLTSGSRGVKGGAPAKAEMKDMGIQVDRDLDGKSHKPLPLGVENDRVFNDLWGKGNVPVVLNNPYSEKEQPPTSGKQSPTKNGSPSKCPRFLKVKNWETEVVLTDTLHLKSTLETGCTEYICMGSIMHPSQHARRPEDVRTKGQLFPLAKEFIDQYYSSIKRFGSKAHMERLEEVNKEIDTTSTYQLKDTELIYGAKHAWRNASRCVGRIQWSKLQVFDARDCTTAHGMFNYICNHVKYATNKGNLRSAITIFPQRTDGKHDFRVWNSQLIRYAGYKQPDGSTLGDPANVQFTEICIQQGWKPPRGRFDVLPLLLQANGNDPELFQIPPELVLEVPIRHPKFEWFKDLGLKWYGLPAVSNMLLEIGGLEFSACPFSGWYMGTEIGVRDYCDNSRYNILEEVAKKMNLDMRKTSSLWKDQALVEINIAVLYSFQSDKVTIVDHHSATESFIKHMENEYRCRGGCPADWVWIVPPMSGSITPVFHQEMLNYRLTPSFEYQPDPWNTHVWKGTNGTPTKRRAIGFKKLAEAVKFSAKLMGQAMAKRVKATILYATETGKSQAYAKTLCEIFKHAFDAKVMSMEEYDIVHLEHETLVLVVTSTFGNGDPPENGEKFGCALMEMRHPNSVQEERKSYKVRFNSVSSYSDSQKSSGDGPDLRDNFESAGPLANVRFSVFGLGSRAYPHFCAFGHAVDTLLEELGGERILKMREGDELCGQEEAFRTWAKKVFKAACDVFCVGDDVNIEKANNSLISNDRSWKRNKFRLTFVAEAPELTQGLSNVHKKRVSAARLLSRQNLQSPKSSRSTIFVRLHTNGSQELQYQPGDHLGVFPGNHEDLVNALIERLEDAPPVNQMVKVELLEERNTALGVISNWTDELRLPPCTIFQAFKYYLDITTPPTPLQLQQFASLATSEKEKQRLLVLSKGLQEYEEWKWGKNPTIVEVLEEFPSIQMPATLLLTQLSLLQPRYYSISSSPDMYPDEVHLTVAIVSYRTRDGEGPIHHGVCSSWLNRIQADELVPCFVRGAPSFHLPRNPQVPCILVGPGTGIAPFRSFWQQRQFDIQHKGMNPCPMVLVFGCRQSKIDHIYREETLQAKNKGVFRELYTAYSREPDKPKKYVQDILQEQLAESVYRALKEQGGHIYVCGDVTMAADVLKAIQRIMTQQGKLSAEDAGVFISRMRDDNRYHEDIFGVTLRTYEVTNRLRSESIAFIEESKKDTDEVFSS
T3 sequence (P14416 whole entry): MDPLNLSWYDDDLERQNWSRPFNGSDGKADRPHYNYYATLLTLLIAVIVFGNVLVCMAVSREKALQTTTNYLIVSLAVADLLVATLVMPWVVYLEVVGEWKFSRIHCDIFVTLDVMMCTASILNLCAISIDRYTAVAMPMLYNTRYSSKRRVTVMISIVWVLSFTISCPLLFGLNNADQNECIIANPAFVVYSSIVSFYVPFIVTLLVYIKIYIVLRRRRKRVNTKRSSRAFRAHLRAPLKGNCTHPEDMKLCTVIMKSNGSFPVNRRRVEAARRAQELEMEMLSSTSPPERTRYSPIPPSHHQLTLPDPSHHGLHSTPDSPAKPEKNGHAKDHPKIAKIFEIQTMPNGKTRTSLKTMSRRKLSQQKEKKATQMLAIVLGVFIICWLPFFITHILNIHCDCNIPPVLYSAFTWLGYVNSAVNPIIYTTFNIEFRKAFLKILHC
5-hydroxytryptamine receptor 2A, sequence (P28223 whole entry): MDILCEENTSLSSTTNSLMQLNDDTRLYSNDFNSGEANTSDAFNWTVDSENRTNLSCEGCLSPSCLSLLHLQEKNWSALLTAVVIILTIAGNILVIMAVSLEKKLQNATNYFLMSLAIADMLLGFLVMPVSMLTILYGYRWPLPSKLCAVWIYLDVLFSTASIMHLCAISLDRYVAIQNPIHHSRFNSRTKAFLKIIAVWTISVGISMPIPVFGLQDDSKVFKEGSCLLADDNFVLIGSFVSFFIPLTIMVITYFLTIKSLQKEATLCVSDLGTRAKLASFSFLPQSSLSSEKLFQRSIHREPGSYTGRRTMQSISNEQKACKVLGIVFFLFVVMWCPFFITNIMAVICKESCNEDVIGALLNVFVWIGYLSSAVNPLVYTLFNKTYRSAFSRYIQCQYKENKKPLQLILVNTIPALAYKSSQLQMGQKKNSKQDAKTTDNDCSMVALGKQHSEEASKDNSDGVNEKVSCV

Structure (SMILES)	IC50 (Nitric oxide synthase 1 [5])	IC50 (Nitric oxide synthase 3)	IC50 (Nitric oxide synthase 1 [8])	also measured
Nc1cccc(-c2ccc(CCN3CCN(CC(=O)c4ccccc4)CC3)cc2)n1	140 nM	887 nM	127 nM	Cmax [1]: 450 ng/mL; half-life [2]: 3.6 h; Ki [3]: 590 nM; Ki [4]: 320 nM; IC50 (D(2) dopamine receptor [6]): > 10000 nM; Cmax [7]: 11000 ng/mL; Cmax [9]: 1700 ng/mL
CC(C)CN1CCN(CCc2ccc(-c3cccc(N)n3)cc2)CC1	350 nM	372 nM	193 nM	
CC(C)NC(=O)CN1CCN(CCc2ccc(-c3cccc(N)n3)cc2)CC1	330 nM	815 nM	256 nM	
Nc1cccc(-c2ccc(CCN3CCN(c4cccc5cccnc45)CC3)cc2)n1	212 nM	825 nM	130 nM	Ki [10]: 14 nM; Ki (D(2) dopamine receptor [11]): 11 nM; Ki [12]: 3 nM
Nc1cccc(-c2ccc(CCN3CCN(CCc4ccccc4)CC3)cc2)n1	264 nM	448 nM	247 nM	
Nc1cccc(-c2ccc(CCN3CCN(C(=O)Cc4ccccc4)CC3)cc2)n1	137 nM	685 nM	108 nM	
O=[N+]([O-])c1cccc2cn[nH]c12 [7-NITROINDAZOLE]	2870 nM			
